Measurements reported in patent EP0684037B1, “Deodorant compositions” (UNILEVER PLC, priority 1994, dated 1995).

Key:
[1] = molecular target: T1, lipoxidase (EC1.13.1.13) (Glycine max, UniProt P08170); assay: Lipoxidase Inhibition Test (inhibition of the oxidation of linoleic acid by lipoxidase); format: biochemical; settings: Lipoxidase Inhibiting Capacity; 0.5% by weight solution in ethanol of the material in test substrate solution; borate buffer pH 9.0; 234 nm
T1 sequence (P08170 1-839): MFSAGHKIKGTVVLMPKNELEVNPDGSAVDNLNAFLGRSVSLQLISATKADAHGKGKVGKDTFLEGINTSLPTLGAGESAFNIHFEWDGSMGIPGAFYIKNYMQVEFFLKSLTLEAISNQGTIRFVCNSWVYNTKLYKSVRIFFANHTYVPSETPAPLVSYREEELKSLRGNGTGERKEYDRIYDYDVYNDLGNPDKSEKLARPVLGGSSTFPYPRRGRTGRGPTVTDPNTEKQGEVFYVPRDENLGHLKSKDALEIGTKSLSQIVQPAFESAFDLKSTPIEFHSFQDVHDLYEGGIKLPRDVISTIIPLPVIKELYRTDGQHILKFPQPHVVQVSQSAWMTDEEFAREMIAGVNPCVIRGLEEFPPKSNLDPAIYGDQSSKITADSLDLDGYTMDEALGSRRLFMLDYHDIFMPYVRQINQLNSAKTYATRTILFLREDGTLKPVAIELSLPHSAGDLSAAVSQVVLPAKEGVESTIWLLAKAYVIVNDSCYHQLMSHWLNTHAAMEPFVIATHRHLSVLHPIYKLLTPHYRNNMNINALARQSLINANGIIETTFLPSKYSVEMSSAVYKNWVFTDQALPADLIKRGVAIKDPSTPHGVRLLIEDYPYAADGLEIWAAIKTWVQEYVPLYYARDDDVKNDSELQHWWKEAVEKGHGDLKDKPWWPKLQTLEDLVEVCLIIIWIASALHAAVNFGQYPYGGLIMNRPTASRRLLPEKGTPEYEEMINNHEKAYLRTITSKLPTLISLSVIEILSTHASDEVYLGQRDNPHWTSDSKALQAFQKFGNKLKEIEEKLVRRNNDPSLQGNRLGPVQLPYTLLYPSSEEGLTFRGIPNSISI
Experimental: In this test the capacity of a material to inhibit the oxidation of linoleic acid by lipoxidase (EC1.13.1.13) to form a hydroperoxide is measured.
Aqueous 0.2M sodium borate solution (pH 9.0) is used as buffer solution.
A control substrate solution is prepared by dissolving linoleic acid (2.0 ml) in absolute ethanol (60 ml), diluting with distilled water to 100 ml and then adding borate buffer (100 ml) and absolute ethanol (300 ml).
A test substrate solution is prepared in the same way as the control substrate solution except that for the absolute ethanol (300 ml) is substituted the same volume of a 0.5% by weight solution in ethanol of the material to be tested.
A solution of the enzyme lipoxidase in the borate buffer and having an activity within the range of from 15,000 to 40,000 units per ml is prepared.
The activity of the lipoxidase in catalysing the oxidation of linoleic acid is first assayed spectrophotometrically using the control. An automatic continuously recording spectrophotometer is used and the increase in extinction at 234 nm (the peak of hydroperoxide) is measured to follow the course of oxidation, the enzyme concentration used being such that it gives an increase in optical density (ΔOD) at 234 nm within the range of from 0.6 to 1.0 units per minute. The following ingredients are placed in two 3 ml cuvettes:
The lipoxidase solution is added to the control cuvette last and the reaction immediately followed spectrophotometrically for about 3 minutes, with recording of the increase in optical density at 234 nm as a curve on a graph.
The capacity of a material to inhibit the oxidation is then measured using a test sample containing enzyme, substrate and a deodorant material. The following ingredients are placed in two 3 ml cuvettes.
The lipoxidase solution is added to the test sample cuvette last and the course of the reaction immediately followed as before.
The lipoxidase-inhibiting capacity of the material is then calculated from the formula 100 (S1-S2)/S1, where S1 is the slope of the curve obtained with the control and S2 is the slope of the curve obtained with the test sample, and thus expressed as % inhibitor. A material that gives at least 50% inhibition in the test is hereafter referred to as having a lipoxidase-inhibiting capacity of at least 50%.

[2] = Morpholine Test (depression of the partial vapour pressure of morpholine, Raoult variance ratio); format: physicochemical; settings: morpholine (0.25 g) and material (1 g), 37°C, headspace GC
Experimental: In this test the capacity of a material to depress the partial vapour pressure of morpholine more than that required by Raoult's Law is measured. Substances that undergo chemical reaction with morpholine, for example aldehydes, are to be regarded as excluded from the test.
Into a sample bottle of capacity 20 ml is introduced morpholine ([…]), the bottle fitted with a serum cap and then maintained at 37°C for 30 minutes for equilibrium to be reached. The gas in the headspace of the bottle is analysed by piercing the serum cap with a capillary needle through which nitrogen at 37°C is passed to increase the pressure in the bottle by a standard amount and then allowing the excess pressure to inject a sample from the headspace into gas chromatograph apparatus, which analyses it and provides a chromatographic trace curve with a peak due to morpholine, the area under which is proportional to the amount of morpholine in the sample.
The procedure is repeated under exactly the same conditions using instead of morpholine alone, morpholine (0.25 g) and the material to be tested (1 g); and also using the material (1 g) without the morpholine to check whether it gives an interference with the morpholine peak (which is unusual).
The procedure is repeated until reproducible results are obtained. The areas under the morpholine peaks are measured and any necessary correction due to interference by the material is made.
A suitable apparatus for carrying out the above procedure is a Perkin-Elmer Automatic GC Multifract F40 for Head Space Analysis. Further details of this method are described by Kolb in "CZ-Chemie-Technik", Vol 1, No 2, 87-91 (1972) and by Jentzsch et al in "Z. Anal. Chem." 236, 96-118 (1968).
The measured areas representing the morpholine concentration are proportional to the partial vapour pressure of the morpholine in the bottle headspace. If A is the area under the morpholine peak when only morpholine is tested and A' is the area due to morpholine when a material is present, the relative lowering of partial vapour pressure of morpholine by the material is given by 1-A'/A.
According to Raoult's Law, if at a given temperature the partial vapour pressure or morpholine in equilibrium with air above liquid morpholine is p, the partial vapour pressure p' exerted by morpholine in a homogeneous liquid mixture of morpholine and material at the same temperature is pM/(M+PC), where M and PC are the molar concentrations of morpholine and material.
The extend to which the behaviour of the mixture departs from Raoult's Law is given by the ratio (1-A'/A)/(87/(87+m/4)) [formula]
The above ratio, which will be referred to as the Raoult variance ratio, is calculated from the test results. Where a material is a mixture of compounds, a calculated or experimentally determined average molecular weight is used for m. A material that depresses the partial vapour pressure of morpholine by at least 10% more than that required by Raoult's Law in the Morpholine Test is one in which the Raoult variance ratio is at least 1.1.

| LIC value [1] [%] | RVR value [2] | SMILES |
| --- | --- | --- |
| 0 | 1.58 | O=C(OCc1ccccc1)c1ccccc1O [Benzyl salicylate] |
| 54 | 0.98 | CC(=O)OC1CCC(C(C)(C)C)CC1 (centres unmarked) [p-t-Butyl cyclohexyl acetate] |
| 100 | 1.21 | COC(=O)c1c(C)cc(O)c(C)c1O [LRG 201] |
| 58 | 1.22 | O=c1ccc2ccccc2o1 [Coumarin] |
| 22 | 1.24 | OCCc1ccccc1 [Phenylethyl alcohol] |
| 74 |  | CC(C=O)Cc1ccc(C(C)(C)C)cc1 (stereo not drawn) [p-t-Butyl-α-methyl hydrocinnamic aldehyde] |

| SMILES | LIC value [1] [%] | RVR value [2] |
| --- | --- | --- |
| CCOc1cc(C=O)ccc1O [Ethyl vanillin] | 100 | 1.43 |
| COc1ccc2ccccc2c1 [β-Naphthyl methyl ether] | 100 |  |
